Experimental data from ChEMBL document CHEMBL5303762, “Data for DCP probe BI-8668” (2023).

Legend:
[1] = molecular target: Prostaglandin G/H synthase 1 (Homo sapiens) (UniProt P23219); experiment: COX-1 Eurofins SafetyScreen44 (BI); details: Compound concentration 10.0 uM
[2] = molecular target: MAO-A (amine oxidase [flavin-containing] A) (Homo sapiens, UniProt P21397); experiment: (§1) MAO-A_ANTAG Eurofins SafetyScreen44 (BI); set-up: scale not given: the % may be the effect or the level left; details: compound concentration 10 uM, read-out: % Ctrl
[3] = molecular target: Beta-3 adrenergic receptor (Homo sapiens) (UniProt P13945); details: Compound concentration 10.0 uM
[4] = molecular target: T1, 5-hydroxytryptamine receptor 1A (Homo sapiens) (UniProt P08908); details: Compound concentration 10.0 uM
T1 sequence (whole entry): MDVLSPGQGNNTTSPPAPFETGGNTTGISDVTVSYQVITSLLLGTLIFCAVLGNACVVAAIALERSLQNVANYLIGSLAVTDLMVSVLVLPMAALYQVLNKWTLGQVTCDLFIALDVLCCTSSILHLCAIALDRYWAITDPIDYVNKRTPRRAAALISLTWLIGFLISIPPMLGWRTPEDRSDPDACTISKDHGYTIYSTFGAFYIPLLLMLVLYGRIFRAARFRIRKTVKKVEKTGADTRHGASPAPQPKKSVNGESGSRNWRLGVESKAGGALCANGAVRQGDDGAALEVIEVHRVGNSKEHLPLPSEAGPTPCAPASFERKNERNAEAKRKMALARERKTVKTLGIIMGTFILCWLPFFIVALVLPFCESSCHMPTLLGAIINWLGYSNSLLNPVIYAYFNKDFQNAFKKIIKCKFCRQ

[5] = molecular target: 5-hydroxytryptamine receptor 2A (Homo sapiens) (UniProt P28223); details: Compound concentration 10.0 uM
[6] = molecular target: Sigma intracellular receptor 2 (Homo sapiens) (UniProt Q5BJF2); details: Compound concentration 10.0 uM
[7] = molecular target: Alpha-1D adrenergic receptor (Homo sapiens) (UniProt P25100); details: Compound concentration 10.0 uM
[8] = molecular target: T2, Alpha-1A adrenergic receptor (Homo sapiens) (UniProt P35348); experiment: ALPHA1A(H)ANTAG Eurofins SafetyScreen44 (BI); details: filed as antagonist, Compound concentration 10.0 uM
T2 sequence (whole entry): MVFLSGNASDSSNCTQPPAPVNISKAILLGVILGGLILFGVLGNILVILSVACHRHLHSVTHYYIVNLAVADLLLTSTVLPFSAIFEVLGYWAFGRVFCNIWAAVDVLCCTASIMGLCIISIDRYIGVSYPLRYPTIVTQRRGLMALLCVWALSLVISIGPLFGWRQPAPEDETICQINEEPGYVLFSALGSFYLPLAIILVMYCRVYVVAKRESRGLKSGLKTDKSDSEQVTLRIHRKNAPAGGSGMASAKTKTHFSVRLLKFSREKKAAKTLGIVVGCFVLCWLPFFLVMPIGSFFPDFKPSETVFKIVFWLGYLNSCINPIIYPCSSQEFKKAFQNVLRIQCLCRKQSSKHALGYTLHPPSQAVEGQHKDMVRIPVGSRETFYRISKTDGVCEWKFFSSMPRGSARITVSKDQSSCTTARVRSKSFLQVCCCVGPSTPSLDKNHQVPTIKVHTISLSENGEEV

[9] = molecular target: D(2) dopamine receptor (Homo sapiens) (UniProt P14416); details: Compound concentration 10.0 uM
[10] = molecular target: T3, Alpha-2A adrenergic receptor (Homo sapiens) (UniProt P08913); details: Compound concentration 10.0 uM
T3 sequence (whole entry): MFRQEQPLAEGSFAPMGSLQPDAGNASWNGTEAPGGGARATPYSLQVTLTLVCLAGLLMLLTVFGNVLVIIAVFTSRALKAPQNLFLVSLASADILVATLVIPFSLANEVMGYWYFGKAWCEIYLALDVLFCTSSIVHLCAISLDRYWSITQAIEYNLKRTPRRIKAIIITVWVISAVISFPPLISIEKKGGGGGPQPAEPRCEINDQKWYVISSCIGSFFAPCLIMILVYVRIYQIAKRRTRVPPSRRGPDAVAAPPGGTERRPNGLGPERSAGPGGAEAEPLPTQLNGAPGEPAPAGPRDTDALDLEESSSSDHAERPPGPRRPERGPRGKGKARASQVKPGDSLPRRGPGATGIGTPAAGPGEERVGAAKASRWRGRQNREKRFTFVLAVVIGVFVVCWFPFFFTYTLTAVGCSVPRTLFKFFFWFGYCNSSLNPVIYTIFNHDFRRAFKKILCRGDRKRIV

[11] = molecular target: T4, Muscarinic acetylcholine receptor M2 (Homo sapiens) (UniProt P08172); experiment: M2(H)ANTAG Eurofins SafetyScreen44 (BI); details: filed as antagonist, Compound concentration 10.0 uM
T4 sequence (whole entry): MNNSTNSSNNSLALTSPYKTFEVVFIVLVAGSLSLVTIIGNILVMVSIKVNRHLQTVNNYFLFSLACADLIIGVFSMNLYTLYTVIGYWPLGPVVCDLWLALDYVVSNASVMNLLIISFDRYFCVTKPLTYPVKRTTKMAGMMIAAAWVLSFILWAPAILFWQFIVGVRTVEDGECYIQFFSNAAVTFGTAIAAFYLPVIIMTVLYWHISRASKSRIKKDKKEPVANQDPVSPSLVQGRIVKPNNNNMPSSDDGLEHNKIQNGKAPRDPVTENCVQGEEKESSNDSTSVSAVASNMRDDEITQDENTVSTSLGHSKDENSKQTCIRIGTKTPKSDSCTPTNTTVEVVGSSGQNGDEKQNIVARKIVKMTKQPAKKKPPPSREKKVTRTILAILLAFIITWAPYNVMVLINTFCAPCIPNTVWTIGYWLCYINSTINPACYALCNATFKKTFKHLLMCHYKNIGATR

[12] = molecular target: MAO-A (amine oxidase [flavin-containing] A) (Rattus norvegicus, UniProt P21396); experiment: as §1; set-up: scale not given: the % may be the effect or the level left; details: compound concentration 10 uM, read-out: % Ctrl
[13] = molecular target: Muscarinic acetylcholine receptor M3 (Homo sapiens) (UniProt P20309); experiment: M3(H)AGON Eurofins SafetyScreen44 (BI); details: filed as agonist, Compound concentration 10.0 uM
[14] = molecular target: GABA-A receptor; anion channel (Rattus norvegicus) (UniProt O09028+P15431+P18506+P18508+P19969+P20236+P23574+P23576+P28471+P28473+P30191+P62813+P63079+P63138+Q91ZM7+Q9ES14); details: Compound concentration 10.0 uM
[15] = molecular target: Sodium-dependent noradrenaline transporter (Homo sapiens) (UniProt P23975); details: Compound concentration 10.0 uM
[16] = molecular target: D(4) dopamine receptor (Homo sapiens) (UniProt P21917); details: Compound concentration 10.0 uM
[17] = molecular target: Histamine H4 receptor (Homo sapiens) (UniProt Q9H3N8); details: Compound concentration 10.0 uM
Sequence of Histamine H4 receptor (Homo sapiens) (Q9H3N8 whole entry): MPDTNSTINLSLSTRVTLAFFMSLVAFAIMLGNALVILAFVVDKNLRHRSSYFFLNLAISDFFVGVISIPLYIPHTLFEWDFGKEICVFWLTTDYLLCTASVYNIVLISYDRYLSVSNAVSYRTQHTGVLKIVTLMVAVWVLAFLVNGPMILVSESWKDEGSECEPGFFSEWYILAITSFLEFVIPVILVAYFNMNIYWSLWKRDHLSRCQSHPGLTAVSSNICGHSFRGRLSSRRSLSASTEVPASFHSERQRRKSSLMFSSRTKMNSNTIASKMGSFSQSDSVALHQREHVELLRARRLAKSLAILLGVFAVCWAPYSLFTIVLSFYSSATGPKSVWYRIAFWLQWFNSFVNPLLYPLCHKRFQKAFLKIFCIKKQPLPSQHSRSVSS

Sequence of D(2) dopamine receptor (Homo sapiens) (P14416 whole entry): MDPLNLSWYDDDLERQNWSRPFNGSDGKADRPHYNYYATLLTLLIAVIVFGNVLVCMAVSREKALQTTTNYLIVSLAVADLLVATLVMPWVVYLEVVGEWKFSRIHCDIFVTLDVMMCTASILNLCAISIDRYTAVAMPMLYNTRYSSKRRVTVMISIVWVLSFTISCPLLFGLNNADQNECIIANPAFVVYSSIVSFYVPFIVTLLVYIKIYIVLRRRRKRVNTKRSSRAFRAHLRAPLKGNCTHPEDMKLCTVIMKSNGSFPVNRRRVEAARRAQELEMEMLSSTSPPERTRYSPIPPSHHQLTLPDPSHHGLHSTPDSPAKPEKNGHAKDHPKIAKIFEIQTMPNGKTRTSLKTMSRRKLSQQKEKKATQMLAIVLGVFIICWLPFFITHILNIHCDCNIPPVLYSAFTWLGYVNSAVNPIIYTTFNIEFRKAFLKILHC
Sequence of Sodium-dependent noradrenaline transporter (Homo sapiens) (P23975 whole entry): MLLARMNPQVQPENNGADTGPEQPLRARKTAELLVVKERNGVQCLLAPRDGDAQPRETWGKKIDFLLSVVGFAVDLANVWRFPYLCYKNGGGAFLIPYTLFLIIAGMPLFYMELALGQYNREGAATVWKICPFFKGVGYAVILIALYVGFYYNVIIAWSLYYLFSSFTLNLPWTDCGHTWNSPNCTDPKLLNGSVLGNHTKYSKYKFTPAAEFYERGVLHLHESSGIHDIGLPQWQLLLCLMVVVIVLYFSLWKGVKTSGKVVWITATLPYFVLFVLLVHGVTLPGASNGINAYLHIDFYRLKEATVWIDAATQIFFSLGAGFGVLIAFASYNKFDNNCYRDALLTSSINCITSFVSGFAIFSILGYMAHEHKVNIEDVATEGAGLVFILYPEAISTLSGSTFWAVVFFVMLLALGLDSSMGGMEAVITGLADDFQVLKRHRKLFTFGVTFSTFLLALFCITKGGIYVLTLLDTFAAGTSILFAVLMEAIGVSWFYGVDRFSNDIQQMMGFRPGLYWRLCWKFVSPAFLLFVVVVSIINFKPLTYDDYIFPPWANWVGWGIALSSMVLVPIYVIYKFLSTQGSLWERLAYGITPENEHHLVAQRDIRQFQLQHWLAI
Sequence of Alpha-1D adrenergic receptor (Homo sapiens) (P25100 whole entry): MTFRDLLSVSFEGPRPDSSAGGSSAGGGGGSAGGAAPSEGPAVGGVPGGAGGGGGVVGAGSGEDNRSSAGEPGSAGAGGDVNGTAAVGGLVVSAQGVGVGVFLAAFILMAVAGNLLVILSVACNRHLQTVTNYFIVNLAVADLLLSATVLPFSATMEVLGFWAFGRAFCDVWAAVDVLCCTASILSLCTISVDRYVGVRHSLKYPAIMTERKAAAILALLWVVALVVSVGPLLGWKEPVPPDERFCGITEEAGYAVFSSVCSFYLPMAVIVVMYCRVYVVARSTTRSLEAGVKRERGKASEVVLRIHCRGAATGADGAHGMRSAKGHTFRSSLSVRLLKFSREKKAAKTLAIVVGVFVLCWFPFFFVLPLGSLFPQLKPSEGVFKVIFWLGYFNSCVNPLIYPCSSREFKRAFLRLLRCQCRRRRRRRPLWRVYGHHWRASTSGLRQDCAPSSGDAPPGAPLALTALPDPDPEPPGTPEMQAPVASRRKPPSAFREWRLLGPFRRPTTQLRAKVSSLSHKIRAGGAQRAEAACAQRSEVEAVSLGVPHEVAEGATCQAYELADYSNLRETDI
Sequence of Beta-3 adrenergic receptor (Homo sapiens) (P13945 whole entry, looked up): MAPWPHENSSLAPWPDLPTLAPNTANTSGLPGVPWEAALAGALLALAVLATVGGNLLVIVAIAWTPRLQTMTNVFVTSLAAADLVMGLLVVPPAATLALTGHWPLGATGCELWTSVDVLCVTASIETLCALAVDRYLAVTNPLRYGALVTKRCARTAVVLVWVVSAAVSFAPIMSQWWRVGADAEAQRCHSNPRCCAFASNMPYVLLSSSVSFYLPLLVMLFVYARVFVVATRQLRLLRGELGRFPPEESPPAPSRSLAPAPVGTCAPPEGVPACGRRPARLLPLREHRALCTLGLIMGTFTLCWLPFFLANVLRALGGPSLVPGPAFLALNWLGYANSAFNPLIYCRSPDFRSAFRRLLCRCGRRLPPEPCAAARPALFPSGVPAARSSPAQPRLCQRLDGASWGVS
Sequence of Sigma intracellular receptor 2 (Homo sapiens) (Q5BJF2 whole entry): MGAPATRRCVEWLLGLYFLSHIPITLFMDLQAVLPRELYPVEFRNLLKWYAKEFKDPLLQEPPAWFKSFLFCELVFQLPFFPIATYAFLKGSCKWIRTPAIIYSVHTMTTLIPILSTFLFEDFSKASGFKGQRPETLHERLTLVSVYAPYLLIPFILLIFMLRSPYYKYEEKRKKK
Sequence of 5-hydroxytryptamine receptor 2A (Homo sapiens) (P28223 whole entry): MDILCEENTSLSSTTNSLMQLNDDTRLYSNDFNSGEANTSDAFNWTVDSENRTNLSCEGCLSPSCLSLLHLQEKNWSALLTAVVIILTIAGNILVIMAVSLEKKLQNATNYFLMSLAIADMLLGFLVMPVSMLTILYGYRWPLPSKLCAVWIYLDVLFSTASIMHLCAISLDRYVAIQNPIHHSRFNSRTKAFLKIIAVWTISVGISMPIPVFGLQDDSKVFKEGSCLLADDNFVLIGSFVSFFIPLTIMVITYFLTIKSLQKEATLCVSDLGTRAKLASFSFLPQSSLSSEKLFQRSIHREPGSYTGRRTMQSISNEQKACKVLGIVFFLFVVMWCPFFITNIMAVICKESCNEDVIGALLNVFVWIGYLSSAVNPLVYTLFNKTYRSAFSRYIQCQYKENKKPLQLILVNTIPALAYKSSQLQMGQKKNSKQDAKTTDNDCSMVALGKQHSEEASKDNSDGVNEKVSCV
Sequence of D(4) dopamine receptor (Homo sapiens) (P21917 whole entry): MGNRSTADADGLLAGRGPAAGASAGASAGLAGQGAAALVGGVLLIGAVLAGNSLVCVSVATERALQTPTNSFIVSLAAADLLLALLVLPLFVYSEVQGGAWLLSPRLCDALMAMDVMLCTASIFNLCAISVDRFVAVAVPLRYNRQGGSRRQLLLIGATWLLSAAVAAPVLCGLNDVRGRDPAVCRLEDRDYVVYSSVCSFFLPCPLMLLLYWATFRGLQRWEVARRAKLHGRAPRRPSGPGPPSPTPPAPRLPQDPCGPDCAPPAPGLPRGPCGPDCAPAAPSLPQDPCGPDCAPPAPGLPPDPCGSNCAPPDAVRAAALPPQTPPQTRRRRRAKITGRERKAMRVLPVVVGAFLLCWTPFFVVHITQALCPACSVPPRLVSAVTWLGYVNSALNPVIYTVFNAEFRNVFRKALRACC
Sequence of MAO-A (amine oxidase [flavin-containing] A) (Homo sapiens, UniProt P21397) (P21397 whole entry): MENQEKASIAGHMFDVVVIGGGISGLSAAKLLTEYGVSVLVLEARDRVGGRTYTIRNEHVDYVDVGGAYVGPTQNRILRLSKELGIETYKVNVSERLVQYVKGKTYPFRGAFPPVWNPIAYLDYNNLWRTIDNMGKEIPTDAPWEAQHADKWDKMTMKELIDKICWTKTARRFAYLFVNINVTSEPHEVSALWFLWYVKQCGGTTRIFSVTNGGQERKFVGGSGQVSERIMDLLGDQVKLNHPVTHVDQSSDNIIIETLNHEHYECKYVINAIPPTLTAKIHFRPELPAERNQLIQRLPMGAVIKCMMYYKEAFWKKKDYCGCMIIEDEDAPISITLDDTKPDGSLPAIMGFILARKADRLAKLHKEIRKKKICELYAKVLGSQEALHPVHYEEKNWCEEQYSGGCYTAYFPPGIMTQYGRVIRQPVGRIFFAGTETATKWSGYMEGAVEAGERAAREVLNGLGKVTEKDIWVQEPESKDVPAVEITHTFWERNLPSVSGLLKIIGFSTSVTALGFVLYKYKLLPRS
Sequence of Muscarinic acetylcholine receptor M3 (Homo sapiens) (P20309 whole entry, looked up): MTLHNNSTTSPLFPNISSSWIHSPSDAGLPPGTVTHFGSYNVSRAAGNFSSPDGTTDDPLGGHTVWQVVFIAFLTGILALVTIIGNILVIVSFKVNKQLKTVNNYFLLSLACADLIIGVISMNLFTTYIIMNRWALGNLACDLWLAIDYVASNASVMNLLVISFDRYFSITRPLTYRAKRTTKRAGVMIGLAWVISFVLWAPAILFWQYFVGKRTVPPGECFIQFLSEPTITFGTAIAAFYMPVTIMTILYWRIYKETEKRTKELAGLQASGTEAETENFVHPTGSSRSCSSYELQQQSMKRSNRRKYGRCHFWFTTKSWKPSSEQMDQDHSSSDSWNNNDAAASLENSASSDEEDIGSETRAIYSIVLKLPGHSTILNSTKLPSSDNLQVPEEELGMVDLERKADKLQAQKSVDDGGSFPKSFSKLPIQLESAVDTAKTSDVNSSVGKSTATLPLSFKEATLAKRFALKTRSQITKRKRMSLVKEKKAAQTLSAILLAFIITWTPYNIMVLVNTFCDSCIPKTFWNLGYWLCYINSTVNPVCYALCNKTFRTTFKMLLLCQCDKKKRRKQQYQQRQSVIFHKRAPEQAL

Q: CCn1c(CNC(=O)c2ncc(C)nc2N)[n+](CC)c2ccc(C(=O)N(C)CN(C)C)cc21 was tested. Which residual activity [1] did it give?
A: The residual activity was 84%.

Q: And the activity at 10 µM [2]?
A: The activity at 10 µM was 95% (not active).

Q: CCn1c(CNC(=O)c2nc(Cl)cnc2N)[n+](CC)c2ccc(C(=O)N(C)CCN(C)C)cc21 was tested. Which inhibition [3] did it give?
A: Its inhibition is -2.81%.

Q: What about the inhibition [4] of the same molecule?
A: The inhibition was -4.21%.

Q: What about the inhibition [5] of the same molecule?
A: Its inhibition is -1.15%.

Q: What about the inhibition [6] of the same molecule?
A: Its inhibition is -0.91%.

Q: What about the inhibition [7] of the same molecule?
A: Its inhibition is 1.74%.

Q: And the residual activity [8]?
A: Its residual activity is 89%.

Q: And the inhibition [9]?
A: The inhibition was -8.76%.

Q: What about the inhibition [10] of the same molecule?
A: Its inhibition is 0.56%.

Q: What about the residual activity [11] of the same molecule?
A: The residual activity was 91%.

Q: What about the activity at 10 µM [12] of the same molecule?
A: The activity at 10 µM was 89% (not active).

Q: And the residual activity [13]?
A: Its residual activity is 102%.

Q: And the inhibition [14]?
A: Its inhibition is 22.4%.

Q: What about the inhibition [15] of the same molecule?
A: The inhibition was -7.54%.

Q: And the inhibition [16]?
A: The inhibition was 7.07%.

Q: And the inhibition [17]?
A: Its inhibition is -7.37%.
